Experimental data published in patent US20240358682A1, “USE OF ALPHA-2-ADRENERGIC RECEPTOR AGONISTS FOR IMPROVING VISION” (Allergan, Inc., priority 2018, published 2024).

Columns and labels:
Dutch Belted rabbits [1] = experiment: In vivo rabbit miosis model, low-light (scotopic) conditions; details: for animals with greater than 2.5 mm reduction in pupil size from baseline: 0.1% w:v, scotopic (<10 lux), n=6; for miotic efficacy compared with brimonidine: single topical dose, low light, FIG. 1 to FIG. 4
Protocol: (§1) Female Dutch Belted rabbits (Covance, Princeton, New Jersey) weighing between 2-4 kg were used for these studies. […] For topical dosing, eye drops (volume=35 μl) were instilled into the lower conjunctival sac of the test eye.
Pupil diameter was measured in both the treated and untreated eye with an Optistick to the nearest 0.5 mm. […] All studies were done under low-light conditions in which a red photography light is used providing 2-10 Lux of light.

Dutch Belted rabbits [2] = experiment: In vivo rabbit miosis model, room light conditions; details: room lighting conditions, FIG. 5
Protocol: Percentage amounts are % w:v.
as §1
Pupil diameter was measured in both the treated and untreated eye with an Optistick to the nearest 0.5 mm. In all studies, baseline pupil diameter measurements were taken prior to drug administration and then at 0.5, 1, 2, 3 and 4 hours post dose. […]

[3] = Protocol: Aliquots of the PBS only curve were quenched at time zero to be used as stability controls and calibration standards. Following centrifugation, samples were analyzed by LC-MS/MS bioanalysis. Back-calculated concentrations using the assay PBS curve were used for binding and stability calculations.
patients = experiment: Patient case examples (presbyopia, glare/starbursts/halos, night vision, night myopia); type: in vivo, human
Description: A person complains of an inability to focus on text when reading up close, which is interfering with their ability of read documents at work, as well as reading books and news articles. The problem seems worse under lower lighting conditions, such as the dim lighting in a restaurant. The visual degradation had been occurring over time, but in recent months, the person's inability to focus on text when read close up had been more pronounced such as to interfere with their quality of life. The person is seen by an ophthalmologist who performs a visual acuity test in which they are asked to read lines of letters on an eye chart without the assistance of glasses or contacts (neither of which they wear anyway). They find that they are only able to read the first four lines on the chart, when a person with normal vision should be able to read six. Based on the person's age and results of the test, they are diagnosed with presbyopia. The person is reluctant to have to obtain reading glasses or wear contact lenses and asks if there are any other medical treatments. They are instructed to administer to their eyes a composition comprising a compound of Formula I one or two times a day. Starting with the first couple of doses, the patient reports improved vision when reading text up close. On a follow-up visit to the ophthalmologist, they are again asked to read lines of letters on an eye chart (they are still administering the composition with the compound of Formula I to their eyes), and this time they are able to read the first six lines, a two line improvement over their previous results prior to administering the compound of Formula I to their eyes.
A person has noticed that their near vision has been deteriorating over the last few years such that they often have to hold reading material almost out to arm's length in order to be able to read the print, especially when the ambient light is dim. The person visits their ophthalmologist who performs a basic eye exam and refraction assessment. Based on the examination, the ophthalmologist prescribes a composition comprising brimonidine to constrict the person's pupil to treat the presbyopia, and the person is instructed to administer the composition to their eyes daily as needed.
A person decides to undergo LASIK surgery. The surgeon who will perform the surgery evaluates the patient and determines that they are a suitable candidate for the surgery, but is told that side effects of the surgery include visual glare, visual starbursts, and visual halos, especially at night. The surgeon performs the surgery without any noticeable issues and the patient is discharged. A day later the patient drives home during the evening for the first time since the surgery and notices what appear to be starbursts of light emanating from the headlights and rear lights of other cars, as well as from street lights, and also glare coming from those light sources that interfere with is vision. The patient also observes diffuse rings around some of the street lights and illuminated street signs. Upon consultation, the surgeon confirms that such visual disturbances are indeed the visual glare, visual starburst, and visual halo side effects often seen after LASIK surgery, and the patient is prescribed a composition comprising the compound of Formula I, which the patient administers to their eyes in accordance with the package instructions.
A person has noticed that they are having issues seeing the street names on street signs with good contrast when they are driving at night. The person consults with their ophthalmologist who, upon hearing the patient's description and performing a visual acuity test under low light conditions, prescribes a composition comprising the compound of Formula I, which the patient administers to their eyes in accordance with the package instructions. […]

presbyopic patients = details: different lighting conditions, McDonald II et al.; cited from earlier work

With `Cc1c(N=C2NCCN2)ccc2[nH]cnc12` [Compound 1] the “animals with greater than 2.5 mm reduction in pupil size from baseline” value (Dutch Belted rabbits [1]; after 6 hours) was “more than half”, the “animals with greater than 2.5 mm reduction in pupil size from baseline” value (Dutch Belted rabbits [1]; two hours after dosing) was “virtually all” and the “miotic efficacy compared with brimonidine” value (Dutch Belted rabbits [1]) was “greater magnitude of pupil size reduction”. For the same molecule, the “pupil constriction at 9 hours after dosing” value (Dutch Belted rabbits [1]; topical dose, FIG. 6) was “significant pupil constriction”, the “effect on pupil constriction compared to Compound 3” value (Dutch Belted rabbits [1]; topical dose, FIG. 7) was “greater effect” and the “miotic action compared with brimonidine (peak pupil constriction and duration of action)” value (Dutch Belted rabbits [2]) was “greater miotic action than brimonidine”. The “melanin binding (assessment in words)” value [3] was “no significant melanin binding”, the “ability to focus on distant objects at night” value (patients; person with night myopia) was “as good as their ability to do so during the day” and the “administrations needed per day to treat presbyopia” value (patients; person with presbyopia) was “once (or sometimes twice)”. For the same molecule, the “improvement in lines read on eye chart” value (patients; person with presbyopia, composition one or two times a day) was “two”, the night vision contrast (patients; person, driving at night) was “much better contrast” and the “visual glare, starbursts and halos after LASIK” value (patients; person, night driving) was “significantly reduced”.

In the case of `Brc1c(N=C2NCCN2)ccc2[nH]cnc12` [Compound 3, reference compound], the “miotic efficacy compared with brimonidine” value (Dutch Belted rabbits [1]) is reported as “much less than brimonidine”.

In the case of `CCc1c(N=C2NCCN2)ccc2[nH]cnc12` [Compound 2, reference compound], the “miotic efficacy compared with brimonidine” value (Dutch Belted rabbits [1]) is reported as “much less than brimonidine”.

With `Brc1c(NC2=NCCN2)ccc2nccnc12` [Compound 4, brimonidine, reference compound] the “animals with greater than 2.5 mm reduction in pupil size from baseline” value (Dutch Belted rabbits [1]; after 6 hours) was “virtually none”, the “animals with greater than 2.5 mm reduction in pupil size from baseline” value (Dutch Belted rabbits [1]; half hour after dosing) was “much less than half” and the “melanin binding (assessment in words)” value [3] was “much more significant binding”. The “administrations needed per day to treat presbyopia” value (patients; person with presbyopia) was “three” and the “average pupil size after brimonidine” value (presbyopic patients) was 3.4 mm.
